For the test, the system named is 782815-120-R-J1-PDC complex spheroid viability. The test can be described thus: Anticancer human tumor 782815-120-R-J1-PDC patient-derived colon adenocarcinoma cell line growth inhibition [RAS]. The settings on record: for viability, T/C: stronger effect = lower value; for IC50: curve of compound. From the text: RAS pathway inhibitors in Combinations in Complex Spheroids
A high-throughput screen of multi-cell type tumor spheroids was designed to identify active combinations of RAS pathway inhibitors and targeted small molecules. Complex spheroids include a stromal component modeled by human endothelial cells (HUVEC) and fibroblasts modeled by human mesenchymal stem cells (MSCs). The concentration ranges selected for each drug and investigational agent were based upon clinically achievable concentrations if the clinical Cmax of the agent was known.
Compounds. The drugs and investigational agents: abemaciclib (NSC768073), cobimetinib (NSC768068), divarasib (GDC6063, NSC841802), docetaxel (NSC628503), GDC-1971 (RLY-1971, NSC841576), gemcitabine (NSC613327), inavolisib (NSC800729), ipatasertib (NSC767898), KB-0742 (NSC834161), MRTX-1133 (NSC836407), osimertinib (NSC779217), RMC-4630 (NSC839698), RMC-6236 (NSC851965), RMC-6291 (NSC852671), Ro-3306 (NSC812927), sapanisertib (NSC764658), SN-38 (NSC673596), staurosporine (NSC755774), SY5609 (NSC837396), and tovorafenib (DAY101, NSC766906), were obtained from the National Cancer Institute (NCI) Developmental Therapeutics Program Chemical Repository. The FDA-approved anticancer drug set is available from the NCI Developmental Therapeutics Program. […] The stock solutions were prepared in dimethyl sulfoxide (DMSO, Sigma-Aldrich, St. Louis, MO, cat. D2650) at 800-fold the tested concentration and stored at -70 degrees C prior to their use. All drugs and investigational agents were tested over a range starting from a high concentration at or near the clinical Cmax and decreasing in half-log increments. If the clinical Cmax for an agent had not been determined, the highest concentration tested was 10 microM.
Cell Culture. All cells were maintained in an incubator at 37 degrees C and 5% CO2 with 95% humidity. The PDC lines were cultured according to standard operating procedures established by the NCI PDMR. All PDCs were thawed and cultured in Matrigel-coated flasks prepared with a working solution of 1X Ham's F-12 nutrient mix, without supplementation (Invitrogen, Waltham, MA, cat. 11765054), 100 U/mL penicillin-streptomycin (Invitrogen, cat. 15140122), and 2.5% Matrigel (Corning Inc., Corning, NY, cat. 354248) for the first three passages. The 362531-283-R-J2-PDC and 782815-120-R-J1-PDC lines were cultured in 6C/Colon 1B media, which includes advanced DMEM/F-12 (Thermo Fisher Scientific, cat. 12634028), 10 mM HEPES (Thermo Fisher Scientific, cat. 15630080), 1X GlutaMAX supplement (Thermo Fisher Scientific, cat. 35050061), 0.1 mg/mL primocin (InvivoGen, San Diego, CA, cat. ant-pm-2), 10% defined fetal bovine serum, heat inactivated (HyClone Laboratories Inc., Logan, UT, cat. SH30070.03HI), 50% L-WRN conditioned media (ATCC, cat. CRL-3276), 1.25 mM N-Acetyl-L-cysteine (Sigma-Aldrich, cat. A9165), 10 mM nicotinamide (Sigma-Aldrich, cat. N0636), 1X B-27 supplement (Thermo Fisher Scientific, cat. 17504044), 1X N-2 supplement (Thermo Fisher Scientific, cat. 17502048), 50 ng/mL human EGF (Thermo Fisher Scientific, cat. PHG0311), and 10 microM Y-27632 dihydrochloride (Tocris Bioscience, cat. 1254). The K12877-001-R-J1-PDC line was cultured in 6I media, which includes all 6C/Colon 1B media plus 10 ng/mL human FGF-10 (PeproTech, cat. 100-26), 1 ng/mL human FGF-2 (PeproTech, cat. 100-18B), 1 µM prostaglandin E2 (Tocris Bioscience, cat. 2296), […] hydrocortisone (Sigma-Aldrich, cat. H4001), and […] bovine insulin (Sigma-Aldrich, cat. I6634). The K86415-001-R-J1-PDC line was cultured in 6D media, which includes all 6C/Colon 1B media components minus the L-WRN conditioned media. The 485176-168-R4-J1-PDC was cultured in PANC media, which includes all 6C/Colon 1B media plus 100 ng/mL human FGF-10 (PeproTech, cat. 100-26), 500 nM SB-431542 (Selleckchem, cat. S1067), and 10 nM gastrin (Tocris Bioscience, cat. 3006). […]

“And” between values parts separate entries of the source, which are not always exact repeats. Equal entries are not always repeated.
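Note: spheroids exposed to compounds for 7 days before reading.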

A word on the viability, T/C: it is the ratio of treated to control. By IC50 is commonly meant the concentration needed to halve the response being measured. On to `CC(=O)OC12COC1CC(O)C1(C)C(=O)C(O)C3=C(C)C(OC(=O)C(O)C(NC(=O)OC(C)(C)C)c4ccccc4)CC(O)(C(OC(=O)c4ccccc4)C21)C3(C)C` (stereo unspecified), for which the IC50 is less than 0.0316 µM. Where the note is “compound 0.0316 µM”, the viability, T/C was 35% [middle of 4 runs]. Further, the viability, T/C (compound 0.1 µM) is 33.6% [middle of 4 runs]. Further, the viability, T/C (compound 0.316 µM) was 25.9% [middle of 4 runs]. The viability, T/C (compound 1 µM) was 27.1% [middle of 4 runs]. Moreover, the viability, T/C (compound 3.16 µM) is 27.9% [middle of 4 runs]. Further, under “compound 10 µM”, the viability, T/C is 33.1% [middle of 4 runs].
Take `CC1(O)CCCC1n1c(=O)c(C(F)F)cc2cnc(NC3CCN(S(C)(=O)=O)CC3)nc21` (stereo unspecified): the IC50 is 4.69 µM [middle of 4 runs]. For the same molecule, the viability, T/C (compound 0.0316 µM) is 70.6% [middle of 4 runs]. Under “compound 0.1 µM”, the viability, T/C was 66.3% [middle of 4 runs]. Also, where the note is “compound 0.316 µM”, the viability, T/C was 64.3% [middle of 4 runs]. For the same molecule, the viability, T/C (compound 1 µM) was 70% [middle of 4 runs]. In addition, where the note is “compound 3.16 µM”, the viability, T/C is 63.5% [middle of 4 runs]. Also, the viability, T/C (compound 10 µM) is 27% [middle of 4 runs].
With `CCC(CC)c1cc(NC2CCC(N)C2)n2nccc2n1` (stereo unspecified), the 50% inhibitory concentration (IC50) was 2.34 µM [middle of 4 runs]. Also, the viability, T/C (compound 0.0316 µM) was 103% [middle of 4 runs]. For the same molecule, the viability, T/C (compound 0.1 µM) was 93.2% [middle of 4 runs]. In addition, the viability, T/C (compound 0.316 µM) is 103% [middle of 4 runs]. Moreover, under “compound 1 µM”, the viability, T/C is 99.6% [middle of 4 runs]. In addition, where the note is “compound 3.16 µM”, the viability, T/C is 34.1% [middle of 4 runs]. Moreover, the viability, T/C (compound 10 µM) is 1.98% [middle of 4 runs].
As to `C[C@@H](NC(=O)c1ncnc(N)c1Cl)c1ncc(C(=O)Nc2cc(C(F)(F)F)c(Cl)cn2)s1`, the IC50 was greater than 10 µM. Besides, the viability, T/C (compound 0.0316 µM) was 105% [middle of 4 runs]. For the same molecule, the viability, T/C (compound 0.1 µM) was 99.3% [middle of 4 runs]. In addition, the viability, T/C (compound 0.316 µM) was 98.1% [middle of 4 runs]. For the setting “compound 3.16 µM”, the viability, T/C was 83% [middle of 4 runs]. The viability, T/C (compound 10 µM) was 62.2% [middle of 4 runs].
For `Cc1nc(N2CCC3(CC2)COC(C)C3N)c(CO)nc1Sc1ccnc(N)c1Cl` (stereo unspecified), the IC50 is greater than 10 µM. Also, the viability, T/C (compound 0.0316 µM) is 96.6% [middle of 4 runs]. In addition, under “compound 0.1 µM”, the viability, T/C was 99.8% [middle of 4 runs]. For the same molecule, the viability, T/C (compound 0.316 µM) was 93.7% [middle of 4 runs]. Further, the viability, T/C (compound 1 µM) is 94.7% [middle of 4 runs]. Further, where the note is “compound 3.16 µM”, the viability, T/C is 98.3% [middle of 4 runs]. The viability, T/C (compound 10 µM) was 104% [middle of 4 runs].
For the molecule `NC1c2ccccc2OC12CCN(c1cnc3c(N4CCCc5ncccc54)n[nH]c3n1)CC2` (stereo unspecified), the IC50 was greater than 10 µM. For the same molecule, the viability, T/C (compound 0.0316 µM) was 99% [middle of 4 runs]. Moreover, the viability, T/C (compound 0.1 µM) was 96.6% [middle of 4 runs]. Besides, for the setting “compound 0.316 µM”, the viability, T/C is 104% [middle of 4 runs]. Besides, the viability, T/C (compound 1 µM) is 95% [middle of 4 runs]. In addition, where the note is “compound 3.16 µM”, the viability, T/C is 102% and 94.6% and 99.8% (2×). The viability, T/C (compound 10 µM) is 86.9% [middle of 4 runs].
